Data from patent publication US20060154993A1, “Method for treating and preventing male infertility” (priority 2004, published 2006).
“And” between values parts separate entries of the source, which are not always exact repeats. Identical values can stand only once. Marks after values point to notes of the source that are not given here.

Legend:
[1] = CoQ10 levels in seminal plasma and sperm cells by HPLC-EC, idiopathic asthenospermia patients on CoQ10; assay type: in vivo, human
Experimental: (§1) Twenty-two patients (mean age, 31 years; range, 25-39 years) with idiopathic asthenospermia were enrolled in the study. The patients were selected at the Andrology Unit of the Division of Endocrinology, Umberto I Hospital, University of Ancona, Ancona, Italy. All subjects underwent medical screening, including history and clinical examination, and presented with a clinical history of primary infertility of at least 3 years. Testicular volume was evaluated in each patient using Prader's orchidometer. To accomplish a complete diagnosis, the following investigations were also performed: semen analysis; Mar-test (SperMar test, Diasint, Florence, Italy) for anti-spermatozoa antibodies (Ab); sperm culture and urethral specimens collection for Chlamydia and Mycoplasma ureoliticum detection; FSH, LH, T, E2, and PRL assays, using commercial RIA kits; and testicular, prostatic, and seminal vesicle ultrasound and echo-color Doppler of venous spermatic plexus for anatomical abnormalities and varicocele detection.
(§2) The enrolled patients underwent dietary implementation of CoQ10 (PharmaNord, Veyle, Denmark), 200 mg/day twice daily orally for 6 months. Clinical examination, semen analysis including computer-assisted sperm analysis (CASA), and CoQ10 and PC assays were performed at baseline and after 6 months of therapy. An additional semen analysis was performed 6 months after the termination of therapy (wash-out). This study was approved by the Institutional Review Board of the University of Ancona-Umberto I Hospital. All patients provided their written informed consent and completed the entire trial.
The liquefied semen samples were centrifuged at room temperature at 500×g for 18 minutes. The sperm cell pellet was washed with 0.15 M NaCl. Two hundred fifty microliters of 1-propanol were added to 50 μL of a cellular suspension containing 10^6 sperm cells or to 50 μL of seminal plasma. After mixing for 1 minute, the samples were centrifuged for 5 minutes at 2,000×g and the obtained supernatants were injected into the high pressure liquid chromatography (HPLC) apparatus. […]
CoQ10 levels were assayed in sperm cells and seminal plasma using a Beckman Gold HPLC System (Beckman Instruments, San Ramon, Calif.) equipped with an electrochemical detector (EC, ESA 5100, Bedford, Mass.) as described elsewhere. The detector was supplied with a guard cell and an analytical cell with two electrodes in series; the potentials applied to the electrodes were, respectively, +0.6V, −0.45V, and +0.6V; chromatograms were recorded from the second analytical cell signal. One hundred microliters of samples were directly injected into the analytical column and analyzed; an analytical column was a Supelcosil reverse-phase C18, 15 cm×0.46 cm ID, 3 μm (Supelco, Inc., Bellefonte, Pa.). […]

[2] = Phosphatidylcholine (PC) levels in seminal plasma and sperm cells by HPLC-UV after CoQ10 treatment; assay type: in vivo, human; details: after 6 months CoQ10 orally, mean ± SD, P<0.05
Experimental: as §2
Analysis of PC was performed according to Frei et al. with the modification described by Yamamoto et al. After adding 1 mL of methanol to a cellular suspension containing about 10^6 sperm cells or to 50 μL of seminal plasma, samples were mixed for 1 minute; then 6 mL of hexane were added and samples were mixed again before centrifugation (10 minutes at 500 g). Supernatant was collected and dried with a nitrogen stream. Dried sample residues were dissolved in 300 μL of ethanol.
Phosphatidylcholine was essentially determined according to Frei et al. An analytical column was a Supelcosil LCSi, 25 cm×0.46 cm ID, 5 μm (Supelco). A Jasco HPLC System (Jasco Corporation, Tokyo, Japan) provided with two PU-980 pumps, and a UV detector set at 205 nm wavelength was used for detention of total PC.

sperm cells [3] = assay: Seminal fluid analysis (WHO criteria): sperm concentration, motility, morphology; assay type: in vivo, human; details: for Sperm concentration / Teratozoospermia: NS
Experimental: as §2
Semen quality was assessed by the same biologist in terms of sperm concentration, motility, and morphology in accordance with WHO criteria. Briefly, seminal fluid was obtained by masturbation after 3-5 days of sexual abstinence. The samples were kept in the andrology lab at room temperature and processed within 1 hour from ejaculation. Sperm count was determined with the Makler chamber. Motile spermatozoa were assessed by phase contrast microscopy (10 μL of semen was delivered onto a glass slide and covered with a 22 mm×22 mm coverslip) and graded as follows: class a and b, fast and weak forward motility; class c, nonprogressive motility; class d, immobile spermatozoa. Sperm morphology was evaluated on smears of seminal fluid, stained with the Giemsa method, and observed by oil immersion light microscopy. Conventional immunocytochemistry was used to assess WBC.

sperm cells [4] = assay: Computer-assisted sperm analysis (CASA) of sperm cell motility; assay type: in vivo, human; details: after 6 months treatment, P<0.05; for Straight progressive velocity (VSL): baseline 15.20 ± 1.30; for Curvilinear velocity (VCL): baseline 26.31 ± 1.50
Experimental: as §2
In addition, CASA for sperm cell motility was performed, as reported elsewhere. One semen aliquot (3 μL) was placed in a 20-μm depth chamber. Two 20-μm depth cell-VU chambers (Conception Technologies, La Jolla, Calif.) were loaded, and six different fields per chamber were randomly examined and at least 200 sperm for each field of the chamber were scored. Percentages of motile sperm and movement characteristics were analyzed using an automated analyzer at 37° C. (CellTrack VP 110, Motion Analysis Corporation, Palo Alto, Calif.). Sperm velocity and kinetic characteristics were evaluated only for motile sperm and expressed as mean values considering curvilinear velocity (VCL) and straight progressive velocity (VSL).

[5] = system: idiopathic asthenospermia; assay: Spontaneous pregnancy after CoQ10 therapy; assay type: in vivo, human; details: within 3 months of the discontinuation of therapy
Experimental: as §1
There was no apparent female factor, since all partners (mean age, 28 years; range, 23-35 years) were ovulating regularly as formally proven by luteal phase progesterone (P) levels and no abnormal fallopian tube anatomy was detected after hysterosalpingography. […]

Safety assessment = assay type: in vivo, human; details: oral administration, 6 months
Source text: Safety assessment included medical history, physical examination, hematological screening, and serum chemistry at all visits and the monitoring of drug-related adverse events by recordation in patient diaries.

[6] = after chronic administration of the quinone; commonly found; cited from earlier work
[7] = after 6 months wash-out, listed as coenzyme Q10

- CoQ10, seminal plasma ([1]; after 6 months CoQ10 200 mg/day twice daily orally, baseline 42.0 ± 5.1, mean ± SD, P<0.005): 127.1 ± 1.9^a ng/mL
- seminal plasma CoQ10 post-treatment level relative to basal ([1]; after 6 months treatment): 3 times
- concentration at 6 months ([1]; male, human, seminal plasma, po, after 6 months CoQ10 200 mg/day twice daily orally, baseline 42.0 ± 5.1, mean ± SD, P<0.005): 127 ± 1.9 ng/mL
SMILES: COC1=C(OC)C(=O)C(C/C=C(\C)CC/C=C(\C)CC/C=C(\C)CC/C=C(\C)CC/C=C(\C)CC/C=C(\C)CC/C=C(\C)CC/C=C(\C)CC/C=C(\C)CCC=C(C)C)=C(C)C1=O [CoQ10, ubiquinone]
- CoQ10, sperm cells ([1]; after 6 months CoQ10 orally, baseline 3.1 ± 0.4, mean ± SD, P<0.05): 6.5±0.3 ng/10^6 cells and 6.5 ± 0.3^b ng/10^6 cells
- PC, seminal plasma ([2]; baseline 1.49 ± 0.50): 5.84±1.15 μM and 5.84 ± 1.15^b μM
- PC, sperm cells ([2]; baseline 6.83 ± 0.98): 9.67±1.23 nmol/10^6 cells and 9.67 ± 1.23^b nmol/10^6 cells
- Forward Motility (class a+b) (sperm cells [3]; after 6 months treatment, baseline 9.13 ± 2.50, P<0.05): 16.34%±3.43
- Forward Motility (class a+b) (sperm cells [3]; after 6 months treatment, baseline 9.13 ± 2.50, P<0.05, listed as coenzyme Q10): 16.34 ± 3.43^a %
- Sperm concentration (sperm cells [3]; after 6 months treatment, baseline 27.60 ± 7.41): No significant differences
- Sperm concentration (sperm cells [3]; after 6 months treatment, baseline 27.60 ± 7.41, listed as coenzyme Q10): 25.92 ± 5.63, NS 106/mL
- Teratozoospermia (sperm cells [3]; after 6 months treatment, baseline 69.76 ± 4.63): No significant differences
- Teratozoospermia (sperm cells [3]; after 6 months treatment, baseline 69.76 ± 4.63, listed as coenzyme Q10): 67.82 ± 7.44, NS %
- Forward Motility (class a+b) (sperm cells [3]; after 6 months wash-out): 9.50% ±2.28
- Sperm concentration (sperm cells [3]; after 6 months wash-out): no significant differences
- Teratozoospermia (sperm cells [3]; after 6 months wash-out): no significant differences
- Sperm concentration (sperm cells [3]; [7]): 26.18 ± 4.04, NS 106/mL
- Teratozoospermia (sperm cells [3]; [7]): 66.23 ± 5.34, NS %
- Forward Motility (class a+b) (sperm cells [3]; [7]): 9.50 ± 2.28^b %
- Straight progressive velocity (VSL) (sperm cells [4]): 20.40±2.17 um/second
- Straight progressive velocity (VSL) (sperm cells [4]; listed as coenzyme Q10): 20.40 ± 2.17^a um/second
- Curvilinear velocity (VCL) (sperm cells [4]): 46.43±2.28 um/second
- Curvilinear velocity (VCL) (sperm cells [4]; listed as coenzyme Q10): 46.43 ± 2.28^a um/second
- patients who achieved spontaneous pregnancy ([5]; three out of 22 patients): 13.6%
- pregnancy rate per cycle [5]: 2.4%
- laboratory abnormalities (Safety assessment): no laboratory abnormalities were observed
- tolerability (Safety assessment): generally well tolerated
- increase of CoQ10 concentration in blood plasma compared with baseline value [6]: 2-3 times
